Source: US8278311B2, “Substituted pyrimidine derivatives” (Abbott Laboratories, priority 2008, dated 2012)
pKi: −log10 of the molar value.

Legend:
[1] = system: carrageenan-induced thermal hyperalgesia; assay: acute model of carrageenan-induced thermal hyperalgesia (hotbox assay); format: in vivo; settings: assessed 30 minutes after dosing
Method: To assess the effectiveness of representative compounds of the invention against acute model inflammatory pain, animals were tested in an acute model of carrageenan-induced thermal hyperalgesia (see for example, Honore, et al. Behavioural Brain Research (2006) vol. 167 pp. 355-364; Porreca, et al. Journal of Pharmacology and Experimental Therapeutics (2006) vol. 318 pp. 195-205). Carrageenan was injected into the test paw of the animal, and after 90 minutes, the test drug was administered by intraperitoneal dosing; the effect on thermal hyperalgesia was assessed in a hotbox assay which was done 30 minutes after the intraperitoneal dosing of the test drug, and the MPE (maximal percent effect) reported by comparison to the control paw (not injected with carrageenan), according to 100 times the withdrawal latency of the carrageenan injected paw (in seconds) divided by the withdrawal latency of the control (not injected with carrageenan) paw. […] Representative compounds are active in this model, with preferred compounds of the invention active in the model at doses of about 100 micromoles/kg of body weight.

histamine H4 receptor [2] = molecular target: T1, histamine H4 receptor (Homo sapiens, UniProt Q9H3N8); assay: 3H-histamine competition binding assay; settings: membranes of HEK-293 cells transiently transfected with histamine H4 receptor; [3H]-histamine, 25° C., 1 hour; read-out: Binding assay Potency (Ki)
T1 construct: expressed in transfected cells
Method: The potency of compounds of the invention in displacing ^3H-histamine in competition binding assays is assessed by methods described in Esbenshade, et al., Biochemical Pharmacology (2004), vol. 68, pp. 933-945. In this assay, membranes were prepared from HEK-293 cells transiently transfected with the pClNeo expression vector harboring the histamine H4 receptor by homogenization of the cells on ice in TE buffer (50 mM Tris-HCl buffer, pH 7.4, containing 5 mM EDTA), 1 mM benzamidine, 2 μg/mL aprotinin, 1 μg/mL leupeptin, and 1 μg/mL pepstatin. The homogenate was centrifuged at 40,000 g for 20 minutes at 4° C. This step was repeated, and the resulting pellet was resuspended in TE buffer. Aliquots were frozen at −70° C. until needed. On the day of assay, membranes were thawed and diluted with TE buffer. Competition radioligand binding assays were performed with increasing concentrations of test compound in the presence of [^3H]-histamine incubated at 25° C. for 1 hour in a total volume of 0.5 mL of 50 mM Tris, 5 mM EDTA, pH 7.4. All binding reactions were terminated by filtration under vacuum onto polyethylenimine (0.3%) presoaked Unifilters (PerkinElmer Life Sciences) or Whatman GF/B filters (Whatman, Clifton, N.J.) followed by three brief washes with 4 mL of ice-cold TE buffer. Bound radiolabel was determined by liquid scintillation counting. For all of the radioligand competition binding assays, IC50 values and Hill slopes were determined by Hill transformation of the data and Ki values were determined by the Cheng-Prusoff equation. The following table of representative histamine H4 receptor ligands is provided, along with potency values: […]

histamine H4 receptor [3] = molecular target: T1, histamine H4 receptor; assay: in vitro assay of histamine H4 activity using FLIPR-Ca+2 flux; format: cell-based; settings: HEK-293 cells stably expressing histamine H4 receptor and Gαqi5, Fluo-4; Kb for antagonists and inverse agonists, EC50 for partial agonists
Excerpt: There are many methods available to show the effectiveness of compounds as histamine H4 receptor ligands. Histamine H4 receptors from mammalian species have been cloned. Methods to clone, express, and assess the potency and functional activity of such cloned genes are well known to those skilled in the art of molecular biology. Examples of methods of cloning and expressing histamine H4 receptors, and of assessing the potency and functional activity are described in Nguyen, et al. Molecular Pharmacology (2001) vol. 59 pp. 427-433; Zhu, et al. Molecular Pharmacology (2001) vol. 59 pp. 434-441; Coge, et al., Biochemical and Biophysical Research Communications (2001) vol. 284, pp. 301-309; Liu, et al. Molecular Pharmacology (2001) vol. 59 pp. 420-426; Liu, et al. Journal of Pharmacology and Experimental Therapeutics (2001) v. 299, pp. 121-130; and Thurmond, et al. Journal of Pharmacology and Experimental Therapeutics (2004) v. 309, pp. 404-413. In the present case, to determine the potency and effectiveness of representative compounds of this invention as histamine-H4 receptor ligands (H4 receptor ligands), the following tests were conducted according to previously described methods (see Esbenshade, et al., Biochemical Pharmacology (2004), vol. 68, pp. 933-945, and in Krueger, et al., Journal of Pharmacology and Experimental Therapeutics (2005) v. 314, pp. 271-281): histamine H4 receptors were cloned and stably expressed in HEK-293 (human embryonic kidney) cells coexpressing a Gαqi5. Before testing, cells are loaded with a Ca+^2 sensitive fluorescent dye, in this case Fluo-4 (Invitrogen, Carlsbad, Calif.). In the case of partial agonist or agonist ligands, addition of compound to the cells leads to the increase in intracellular Ca^+2 which is detected by FLIPR (Fluorescence Imaging Plate Reader; Molecular Devices, Sunnyvale, Calif.) technology. In a similar manner, compounds that are antagonists or inverse agonists, block the increase in fluorescence induced by the full histamine H4 agonist histamine, and partial agonists reduce the amount of fluorescence induced by the full histamine H4 agonist histamine. The fluorescence intensities measured before addition of the test compound are subtracted from the fluorescence intensities at later time points. Peak response values determined at each concentration of ligand are expressed as a percentage of the response obtained with the full agonist histamine. Concentration versus response data are analyzed to obtain compound potency as Kb values for antagonists and inverse agonists and as EC50 values for partial agonists.

[4] = 100 micromole/kg injected intraperitoneally

Structure (SMILES) | pKi (histamine H4 receptor [2]) | Potency (histamine H4 receptor [3]) [nM] | MPE (maximal percent effect) [1, 4] [%] | MPE (maximal percent effect) ([1]; 30 micromole/kg injected intraperitoneally) [%]
Nc1nc2c(c(N3CCNCC3)n1)CCC1=C2C2CCCCC2O1 (centres unmarked) [Example 1, 4-piperazin-1-yl-5,6,7a,8,9,10,11,11a-octahydro[1]benzofuro[2,3-h]quinazolin-2-amine] | 8.24 | 4.7 | 68 | 48
CN[C@@H]1CCN(c2nc(N)nc3c2CCCC2C4C=CC(CC4)C32)C1 (stereo partly drawn) [Example 25, 4-[(3R)-3-(methylamino)pyrrolidin-1-yl]-6,7,7a,8,11,11a-hexahydro-5H-8,11-ethanobenzo[6,7]cyclohepta[1,2-d]pyrimidin-2-amine] | 8.25 | 24.0 | – | –

Continued, in another order:

pKi (histamine H4 receptor [2]) | Potency (histamine H4 receptor [3]) [nM] | Structure (SMILES) | MPE (maximal percent effect) [1, 4] [%] | MPE (maximal percent effect) ([1]; 30 micromole/kg injected intraperitoneally) [%]
7.78 | 5.9 | Nc1nc2c(c(N3CCNCC3)n1)CCC1=C2[C@@H]2CCCC[C@@H]2O1 (single isomer, unassigned) [Example 3, (−)-(7aS*,11aS*)-4-piperazin-1-yl-5,6,7a,8,9,10,11,11a-octahydro[1]benzofuro[2,3-h]quinazolin-2-amine] | 47 | –
8.52 | 4.5 | Nc1nc2c(c(N3CCNCC3)n1)CCC1=C2[C@H]2CCCC[C@H]2O1 (single isomer, unassigned) [Example 4, (+)-(7aR*,11aR*)-4-piperazin-1-yl-5,6,7a,8,9,10,11,11a-octahydro[1]benzofuro[2,3-h]quinazolin-2-amine] | 63 | –
8.26 | 21.9 | CN[C@@H]1CCN(c2nc(N)nc3c2CCCC2C4CCC(CC4)C32)C1 (stereo partly drawn) [Example 28, 4-[(3R)-3-(methylamino)pyrrolidin-1-yl]-6,7,7a,8,9,10,11,11a-octahydro-5H-8,11-ethanobenzo[6,7]cyclohepta[1,2-d]pyrimidin-2-amine] | – | –
